Experiments:
[1] = test system: colon cancer cells (HCT116); test: anti-tumor effects, growth of colon cancer cells; format: cell-based; conditions: concentration 25 μg/mL
Experimental: An evaluation was conducted of the anti-tumor effects of a compound 11 derived by chemical conversion of cyclobutane compound 10 synthesized according to the present invention. As a result, the growth of colon cancer cells (HCT116) was inhibited by a low concentration of 25 μg/mL of compound 11. [drawing 61]

[2] = test system: cultured Plasmodium falciparum; test: growth inhibition of malaria parasites; format: cell-based; conditions: read-out: concentration at which growth of cultured Plasmodium falciparum was 50% inhibited
Experimental: An evaluation was conducted of growth inhibition of malaria parasites by a compound 9 derived by chemical conversion of cyclobutane compound 8 synthesized according to the present invention. As a result, the growth of cultured Plasmodium falciparum was 50% inhibited by a low concentration of 1 μM of compound 9. [drawing 60]

SMILES | growth of colon cancer cells (HCT116) [1] | IC50 [2]
CC(=O)OC12CCC1(C)C1CC(C)(C)CC2C=C1C (centres unmarked) [compound 11] | inhibited | 
OC[C@H]1C2CCC[C@@]23CCC[C@@]13O (some centres unmarked) [compound 9] |  | 1000 nM

Reference: patent US20080051598A1, “Process for Production of Polysubstituted Cyclobutanes and Polysubstituted Cyclobutenes” (priority 2004, published 2008)
